Results from patent US4556668A, “Ethylenediamine derivatives of aryloxypropanolamine aryl esters having various medicinal properties” (American Hospital Supply Corporation, priority 1983, dated 1985).

Assays:
[1] = biological target: T1, guinea pig tracheal strips (Cavia porcellus, UniProt Q8K4Z4); test: Beta blocking activity in vitro, guinea pig tracheal strips (isoproterenol-induced relaxation); details: carbachol tension, vs isoproterenol, 60-minute incubation, read-out: pA2 value in the trachea (converted)
T1 construct: from tissue; host or cells: guinea pig tracheal spiral strips
T1 sequence (Q8K4Z4 whole entry): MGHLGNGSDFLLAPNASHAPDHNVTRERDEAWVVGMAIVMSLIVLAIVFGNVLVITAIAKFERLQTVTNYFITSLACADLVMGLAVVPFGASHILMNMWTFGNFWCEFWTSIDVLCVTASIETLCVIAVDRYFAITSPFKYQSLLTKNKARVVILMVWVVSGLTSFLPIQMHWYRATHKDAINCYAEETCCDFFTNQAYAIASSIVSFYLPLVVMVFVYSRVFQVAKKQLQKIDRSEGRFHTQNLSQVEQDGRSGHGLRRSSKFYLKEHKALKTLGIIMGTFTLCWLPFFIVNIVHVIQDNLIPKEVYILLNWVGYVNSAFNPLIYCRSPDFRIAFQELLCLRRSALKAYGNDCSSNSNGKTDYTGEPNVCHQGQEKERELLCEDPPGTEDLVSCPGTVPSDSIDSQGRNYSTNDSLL
Experimental: (§1) Compounds of the present invention are tested for β-blocking activity in vitro using guinea pig right atria and guinea pig tracheal strips mounted in a tissue bath containing oxygenated (95% O2 -5% CO2) Krebs physiological salt solution at 37° C. Each tissue is suspended between a fixed glass rod and a Statham Universal Transducer connected to a Beckman recorder. Atria were allowed to beat spontaneously under a loading tension of approximately 0.5 gm. Intrinsic depressant or stimulant activity is determined for each compound by progressively increasing concentrations in the tissue baths at 60-minute intervals. Tissues are not washed between increments. The maximum concentration showing little or no cardiodepressant activity is chosen for blockade experiments. Changes in rate in response to isoproterenol, a standard β-receptor agonist, is measured in the absence and presence of test compounds. Spiral strips of guinea pig trachea are suspended under 5 gm resting tension and incubated with phentolamine, tropolone and cocaine. Active tension is generated by addition of carbachol (3.0×10^-7 M) and decreases in tension in response to isoproterenol are quantitated. Cumulative concentration-response curves are produced with isoproterenol both before and after 60-minute incubation of test compounds with atria and trachea. […]

[2] = test system: β-blockade of isoproterenol heart rate response; test: Duration of beta-blocking action in vivo, anesthetized dogs; parameters: species or system dog; details: pentobarbital-anesthetized dogs, after 3-hour infusion, isoproterenol 0.5 μg/kg bolus
Experimental: The duration of β-blockade is determined In vivo using pentobarbital-anesthetized dogs instrumented for measurement of heart rate using a Beckman cardiotachometer triggered electronically by a phasic aortic blood pressure signal. Both vagus nerves are severed in the cervical region and the animals are mechanically ventilated. The experimental design used employs a 3-hour infusion of test compound. Bolus doses of isoproterenol (0.5 μg/kg) are used to assess the degree of β-blockade and recovery from β-blockade after […] of the infusion. The doses are spaced at 10-minute intervals and are given before, during and following the infusion of test compounds. The infusion rate is adjusted so that at the end of the 3-hour infusion period the degree of isoproterenol inhibition averaged about 50% of control. Following termination of blocker infusion, percent recovery from β-blockade is computed and the time associated with 80% recovery estimated.

guinea pig right atria [3] = test: Beta blocking activity in vitro, guinea pig right atria (isoproterenol-induced rate change); details: ratio greater than one indicates cardioselectivity
Experimental: as §1

guinea pig right atria [4] = biological target: T2, guinea pig right atria (Cavia porcellus, UniProt H0W3H1); test: as above; details: guinea pig right atria, vs isoproterenol, 60-minute incubation; read-out: pA2 value in the atria (converted)
T2 construct: from tissue; host or cells: guinea pig right atria (isolated, spontaneously beating)
T2 sequence (H0W3H1 1-470): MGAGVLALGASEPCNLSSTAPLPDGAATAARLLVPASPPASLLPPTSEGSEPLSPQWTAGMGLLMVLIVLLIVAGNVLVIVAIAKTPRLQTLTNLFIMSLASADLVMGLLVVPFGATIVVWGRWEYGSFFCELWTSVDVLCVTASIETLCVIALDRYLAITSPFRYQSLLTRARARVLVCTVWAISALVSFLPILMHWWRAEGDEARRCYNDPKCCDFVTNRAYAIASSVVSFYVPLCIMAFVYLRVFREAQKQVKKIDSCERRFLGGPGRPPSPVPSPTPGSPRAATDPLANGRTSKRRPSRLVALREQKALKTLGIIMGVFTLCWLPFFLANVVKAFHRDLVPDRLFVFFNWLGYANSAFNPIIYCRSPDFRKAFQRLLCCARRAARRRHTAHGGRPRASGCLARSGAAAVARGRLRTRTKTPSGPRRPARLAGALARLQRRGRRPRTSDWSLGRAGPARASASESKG
Experimental: as §1

Kb [1]: 79.4 nM
Kb (guinea pig right atria [4]): 31.6 nM
SMILES: COC(=O)c1ccccc1OCC(O)CNCCNc1ccc([N+](=O)[O-])cn1 (stereo not shown) [Example I, Methyl 2[2-Hydroxy-3-[2-[2-(5-nitropyridinyl)amino]ethyl]aminopropoxy benzoate]
in vivo duration of action (time to 80% recovery from β-blockade) [2]: 15 ± 6 min
cardioselectivity (ratio KB trachea/KB atria) (guinea pig right atria [3]): 2.5
